Literature values in patent US20070122486A1, “Nanoparticulate insulin” (Elan Pharma International Limited, priority 2001, published 2007).

Details: physiological conditions

Substance: Soluble insulin: Available soluble composition of insulin, a 5.8 kD protein hormone
- duration of activity: about six
- onset of activity: about 30 minutes
